In US20060229348A1, “Oxindole oxazolidinone as antibacterial agent” (priority 2005, published 2006) one finds MIC90 and Ki data, which are given here for 8 compounds.

What is called MIC90 is an inhibitory concentration at the 90% level, which refers to growth in some studies and to a panel of isolates in others. By Ki is commonly meant the dissociation constant of the complex between target and ligand, obtained from inhibition or displacement. Read a high Ki as weaker binding.

Values after ≈ are worked out from the molar mass of the structure shown.

One assay relates to E. faecalis (VREF). Nature of the assay: in vitro antibacterial activity (MIC), E. faecalis (VREF). The format is cell-based. The following applies: Enterococcus faecalis. From the text:
(§1) The in vitro antibacterial activity of the compound of the present invention may be assessed by following procedures recommended in (1) National Committee for Clinical Laboratory Standards (January 2003), Methods for dilution antimicrobial tests for bacteria that grow aerobically, Approved Standard (6th ed), M7-A6, NCCLS, Wayne, Pa.; (2) National Committee for Clinical Laboratory Standards (March 2001), Methods for antimicrobial susceptibility testing of anaerobic bacteria, Approved Standard (5th ed), M11-A4, NCCLS, Wayne, Pa.; (3) National Committee for Clinical Laboratory Standards (Jan. 2003), MIC testing supplemental tables, M100-S13 (for use with M7-A6), NCCLS, Wayne, Pa.; and (4) Murray P R, Baron E J, Jorgensen J H, et al. Manual of Clinical Microbiology (8th ed) Washington, D.C.: American Society for Microbiology Press, 2003. The antibacterial activity can be presented in the form of MIC value. The MIC value is the lowest concentration of drug, which prevented macroscopically visible growth under the conditions of the test.

The test system of the next assay is S. pneumoniae (LRSA). Nature of the assay: in vitro antibacterial activity (MIC), S. pneumoniae (LRSA). Type of assay: cell-based. As to conditions: Streptococcus pneumoniae.
Description: as §1

The next assay concerns the target T1, MAO-B (Homo sapiens, UniProt P27338).
T1 sequence (P27338 1-520): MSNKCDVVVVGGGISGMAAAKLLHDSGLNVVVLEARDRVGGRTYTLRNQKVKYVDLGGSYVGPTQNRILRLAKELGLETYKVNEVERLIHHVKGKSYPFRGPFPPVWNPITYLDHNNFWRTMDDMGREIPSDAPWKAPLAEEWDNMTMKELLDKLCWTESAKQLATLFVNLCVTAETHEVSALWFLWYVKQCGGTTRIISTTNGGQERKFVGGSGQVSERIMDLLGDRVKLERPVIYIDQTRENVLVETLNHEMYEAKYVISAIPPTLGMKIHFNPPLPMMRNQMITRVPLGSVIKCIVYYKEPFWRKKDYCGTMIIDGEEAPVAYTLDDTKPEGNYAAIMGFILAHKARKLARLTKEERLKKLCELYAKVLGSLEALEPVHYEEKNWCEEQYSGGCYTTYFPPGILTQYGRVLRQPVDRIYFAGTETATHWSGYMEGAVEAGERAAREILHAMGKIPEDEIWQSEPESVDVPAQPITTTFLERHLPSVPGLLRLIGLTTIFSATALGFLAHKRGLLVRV
The assay can be described thus: monoamine oxidase inhibition, MAO-B. The format is biochemical. The following applies: substrate at Km 43 μM; MAO-B 0.008 mg/mL. The method, then:
(§2) MAO-A and B inhibition were analyzed by measuring the inhibition of conversion of an MAO substrate, 1-methyl-4-(1-methyl-2-pyrryl)-1,2,3,6-tetrahydropyridine, to its dihydropyridinium metabolite (λ=421 nm). The substrate concentration was equal to the Km (64 μM for MAO-A and 43 μM for MAO-B). The MAO-A concentration was 0.01 mg/mL, and the MAO-B concentration was 0.008 mg/mL. Each inhibitor was tested at seven concentrations. Percent inhibition at each concentration was established relative to the uninhibited control rate, and the IC50 and Ki values were calculated.

For a further assay, the target named is T2, MAO-A (Homo sapiens, UniProt P21397).
T2 sequence (P21397 1-527): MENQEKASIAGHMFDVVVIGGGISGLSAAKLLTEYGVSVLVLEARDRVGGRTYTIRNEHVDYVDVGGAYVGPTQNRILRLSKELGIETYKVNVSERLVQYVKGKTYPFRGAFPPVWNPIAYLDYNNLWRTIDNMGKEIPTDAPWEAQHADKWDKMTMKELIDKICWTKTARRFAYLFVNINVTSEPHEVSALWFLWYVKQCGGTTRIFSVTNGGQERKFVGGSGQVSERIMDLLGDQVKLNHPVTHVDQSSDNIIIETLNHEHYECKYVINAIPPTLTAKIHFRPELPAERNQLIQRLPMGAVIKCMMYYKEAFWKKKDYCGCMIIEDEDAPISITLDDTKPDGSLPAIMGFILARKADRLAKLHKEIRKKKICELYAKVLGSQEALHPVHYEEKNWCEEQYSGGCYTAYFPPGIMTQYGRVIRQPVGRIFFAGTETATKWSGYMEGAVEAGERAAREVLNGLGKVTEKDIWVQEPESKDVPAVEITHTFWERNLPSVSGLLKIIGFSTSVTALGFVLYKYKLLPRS
Nature of the assay: monoamine oxidase inhibition, MAO-A. The format is biochemical. As to conditions: substrate at Km 64 μM; MAO-A 0.01 mg/mL. As to the method:
as §2

A further assay has as its system S. aureus (LORSA). The assay can be described thus: in vitro antibacterial activity (MIC), S. aureus (LORSA). Type of assay: cell-based. The following applies: Staphylococcus aureus.
Description: as §1

The test system of another assay is E. faecium (VREF). The assay can be described thus: in vitro antibacterial activity (MIC), E. faecium (VREF). Type of assay: cell-based. The following applies: Enterococcus faecium.
Description: as §1

A further assay concerns E. faecalis MGH-2 EF 1-1. The assay can be described thus: in vitro antibacterial activity, E. faecalis MGH-2 EF 1-1. The following applies: Enterococcus faecalis, MGH2EF11; strain MGH-2 EF 1-1. The format is cell-based.
Description: as §1

A further assay relates to S. aureus UC-76 SA-1. Nature of the assay: in vitro antibacterial activity, S. aureus UC-76 SA-1. The following applies: Staphylococcus aureus, UC76; strain UC-76 SA-1. The format is cell-based.
Description: as §1

The test system of the next assay is S. pneumoniae SV1 SP-3. Nature of the assay: in vitro antibacterial activity, S. pneumoniae SV1 SP-3. Type of assay: cell-based. The following applies: Streptococcus pneumoniae, SV1SP3; strain SV1 SP-3.
Description: as §1

In the case of `CCN1C(=O)Cc2cc(N3C[C@H](CNC(=O)OC)OC3=O)ccc21` [Compound No. 1, (5S)-[3-(1-ethyl-2-oxo-2,3-dihydro-1H-indol-5-yl)-2-oxo-oxazolidin-5-ylmethyl]-carbamic acid methyl ester], the MIC90 in the assay with E. faecalis (VREF) came out at 4 µg/mL (≈ 12 µM); against S. pneumoniae (LRSA) it was 2 µg/mL (≈ 6 µM); against S. aureus (LORSA) it was 4 µg/mL (≈ 12 µM); with E. faecium (VREF) it was 4 µg/mL (≈ 12 µM). The Ki was found to be 57.4 µM on MAO-B and 880 µM at MAO-A.

For `COC(=O)NC[C@H]1CN(c2ccc3c(c2)CC(=O)N3C)C(=O)O1` [Example 2, (S)-[3-(1-methyl-2-oxo-2,3-dihydro-1H-indol-5-yl)-2-oxo-oxazolidin-5-ylmethyl]-carbamic acid methyl ester], the MIC90 against E. faecalis MGH-2 EF 1-1 was found to be 2 µg/mL (≈ 6.26 µM); in the assay with S. aureus UC-76 SA-1, 4 µg/mL (≈ 12.5 µM); against S. pneumoniae SV1 SP-3, 1 µg/mL (≈ 3.13 µM).

Consider `COC(=O)NC[C@H]1CN(c2ccc3c(c2)CC(=O)N3CCF)C(=O)O1` [Example 3, (S)-{3-[1-(2-fluoro-ethyl)-2-oxo-2,3-dihydro-1H-indol-5-yl]-2-oxo-oxazolidin-5-ylmethyl}-carbamic acid methyl ester], for which the MIC90 in the assay on E. faecalis MGH-2 EF 1-1 stood at 2 µg/mL (≈ 5.69 µM); with S. aureus UC-76 SA-1, 4 µg/mL (≈ 11.4 µM); against S. pneumoniae SV1 SP-3, 2 µg/mL (≈ 5.69 µM).

As to `COC(=O)NC[C@H]1CN(c2ccc3c(c2)CC(=O)N3C(C)C)C(=O)O1` [Example 4, (S)-[3-(1-isopropyl-2-oxo-2,3-dihydro-1H-indol-5-yl)-2-oxo-oxazolidin-5-ylmethyl]-carbamic acid methyl ester], the MIC90 against E. faecalis MGH-2 EF 1-1 amounted to 8 µg/mL (≈ 23 µM); in the assay on S. aureus UC-76 SA-1, 8 µg/mL (≈ 23 µM); against S. pneumoniae SV1 SP-3 it was 4 µg/mL (≈ 11.5 µM).

Consider `CCCN1C(=O)Cc2cc(N3C[C@H](CNC(=O)OC)OC3=O)ccc21` [Example 5, (S)-[2-oxo-3-(2-oxo-1-propyl-2,3-dihydro-1H-indol-5-yl)-oxazolidin-5-ylmethyl]-carbamic acid methyl ester], for which the MIC90 against E. faecalis MGH-2 EF 1-1 was determined as 4 µg/mL (≈ 11.5 µM); in the assay on S. aureus UC-76 SA-1 it was 8 µg/mL (≈ 23 µM); with S. pneumoniae SV1 SP-3, 4 µg/mL (≈ 11.5 µM).

For `COC(=O)NC[C@H]1CN(c2ccc3c(c2)CC(=O)N3C2CC2)C(=O)O1` [Example 6, (S)-[3-(1-cyclopropyl-2-oxo-2,3-dihydro-1H-indol-5-yl)-2-oxo-oxazolidin-5-ylmethyl]-carbamic acid methyl ester], the MIC90 in the assay with E. faecalis MGH-2 EF 1-1, against S. aureus UC-76 SA-1 and with S. pneumoniae SV1 SP-3 was 4 µg/mL (≈ 11.6 µM) each time.

For `COC(=O)NC[C@H]1CN(c2ccc3c(c2)CC(=O)N3CC2CC2)C(=O)O1` [Example 7, (S)-[3-(1-cyclopropylmethyl-2-oxo-2,3-dihydro-1H-indol-5-yl)-2-oxo-oxazolidin-5-ylmethyl]-carbamic acid methyl ester], the MIC90 was 8 µg/mL (≈ 22.3 µM) against E. faecalis MGH-2 EF 1-1, 8 µg/mL (≈ 22.3 µM) in the assay with S. aureus UC-76 SA-1 and 4 µg/mL (≈ 11.1 µM) against S. pneumoniae SV1 SP-3.

Turning to `COC(=O)NC[C@H]1CN(c2ccc3c(c2)CC(=O)N3C(C)CF)C(=O)O1` (stereo partly drawn) [Example 8, (S)-{3-[1-(2-fluoro-1-methyl-ethyl)-2-oxo-2,3-dihydro-1H-indol-5-yl]-2-oxo-oxazolidin-5-ylmethyl}-carbamic acid methyl ester], the MIC90 with E. faecalis MGH-2 EF 1-1, in the assay on S. aureus UC-76 SA-1 and against S. pneumoniae SV1 SP-3 was 4 µg/mL (≈ 10.9 µM) each time.
